Reference: patent US10597388B2, “Pyridazinone herbicides” (FMC CORPORATION, priority 2014, dated 2020)

Tests used:
Type in all cases: in vivo
[1] = system: corn (Zea mays); assay: Test E greenhouse herbicide test, pre- and postemergence
How it was run: (§1)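 Visual rating vs untreated controls, 0 = no effect, 100 = complete control, after 14–21 d greenhouse. Pre: seeded silt loam treated with surfactant-containing solvent formulation. Post: 1–4-leaf plants (2–18 cm) in peat/vermiculite medium.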

[2] = system: crabgrass, Brazilian (Brazilian crabgrass, Digitaria horizontalis); assay: as above
How it was run: as §1

[3] = system: waterhemp (common waterhemp, Amaranthus rudis); assay: as above
How it was run: as §1

[4] = system: soybean (Glycine max); assay: as above
How it was run: as §1

[5] = system: bromegrass, downy (downy bromegrass, Bromus tectorum); assay: Test D controlled growth environment herbicide test, pre- and postemergence; details: for Bromegrass, Downy plant response rating / Plant response rating (scale of 0 to 100), Bromegrass, Downy: 31 g ai/ha
How it was run: (§2)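 Rating is visual, 0–100 scale (100 = complete control), made against untreated plants 14–21 d after treatment in controlled growth conditions. Postemergence sprays went onto 1- to 4-leaf plants in peat medium; preemergence sprays onto silt loam after sowing; formulation included a surfactant.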

[6] = system: ryegrass, Italian (Italian ryegrass, Lolium multiflorum); assay: as above; details: for Ryegrass, Italian plant response rating / Plant response rating (scale of 0 to 100), Ryegrass, Italian: 31 g ai/ha
How it was run: as §2

[7] = system: bluegrass (annual bluegrass, Poa annua); assay: as above; details: for Bluegrass plant response rating / Plant response rating (scale of 0 to 100), Bluegrass: 31 g ai/ha
How it was run: as §2

[8] = system: speedwell (bird's-eye speedwell, Veronica persica); assay: as above
How it was run: as §2

[9] = 62 g ai/ha, Postemergence, scale 0 to 100 (0 no effect, 100 complete control)
[10] = 62 g ai/ha, Preemergence, scale 0 to 100 (0 no effect, 100 complete control)
[11] = 125 g ai/ha, Postemergence, scale 0 to 100 (0 no effect, 100 complete control)
[12] = 250 g ai/ha, Postemergence, scale 0 to 100 (0 no effect, 100 complete control)
[13] = Postemergence, 31 g ai/ha, visual, scale 0 no effect to 100 complete control
[14] = Preemergence, 31 g ai/ha, scale 0 to 100, 0 no effect, 100 complete control
[15] = Preemergence, 125 g ai/ha, visual, scale 0 no effect to 100 complete control
[16] = Preemergence, 250 g ai/ha, visual, scale 0 no effect to 100 complete control
[17] = 125 g ai/ha, Preemergence, scale 0 to 100 (0 no effect, 100 complete control)
[18] = Postemergence, scale 0 to 100 (0 no effect, 100 complete control)
[19] = Postemergence, 125 g ai/ha, visual rating on scale 0 (no effect) to 100 (complete control), 14 to 21 d
[20] = Postemergence, 250 g ai/ha, scale 0 to 100 (0 no effect, 100 complete control)
[21] = Preemergence, 62 g ai/ha, scale 0 to 100 (0 no effect, 100 complete control)
[22] = Preemergence, 125 g ai/ha, scale 0 to 100 (0 no effect, 100 complete control)
[23] = Preemergence, 250 g ai/ha, scale 0 to 100, 0 no effect, 100 complete control
[24] = postemergence, 62 g ai/ha, scale 0 to 100, 0 no effect, 100 complete control
[25] = Postemergence, 31 g ai/ha, scale 0 to 100 (0 no effect, 100 complete control)

SMILES: CCc1sc2c(C)cc(C)cc2c1-c1c(O)c(C)nn(C)c1=O [Compound 57]
- Plant response rating, Corn [1, 9]: 10
- Plant response rating, Corn [1, 10]: 0
- Plant response rating, Corn [1, 11]: 15
- Plant response rating, Corn [1, 12]: 15
- Plant response rating, Corn [1, 13]: 15
- Plant response rating, Corn [1, 14]: 0
- Plant response rating, Corn [1, 15]: 0
- Plant response rating, Corn [1, 16]: 0
- Plant response rating, Crabgrass, Brazil [2, 9]: 20
- Plant response rating, Crabgrass, Brazil [2, 10]: 0
- Plant response rating, Crabgrass, Brazil [2, 11]: 20
- Plant response rating, Crabgrass, Brazil [2, 12]: 30
- Plant response rating, Crabgrass, Brazil [2, 13]: 15
- Plant response rating, Crabgrass, Brazil [2, 14]: 0
- Plant response rating, Crabgrass, Brazil [2, 15]: 40
- Plant response rating, Crabgrass, Brazil [2, 16]: 70
- Plant response rating, Waterhemp [3, 9]: 50
- Plant response rating, Waterhemp [3, 10]: 75
- Plant response rating, Waterhemp [3, 11]: 30
- Plant response rating, Waterhemp [3, 17]: 40
- Plant response rating, Waterhemp [3, 12]: 75
- Plant response rating, Waterhemp [3, 13]: 50
- Plant response rating, Waterhemp [3, 14]: 80
- Plant response rating, Waterhemp [3, 16]: 80
- Plant response rating, Soybean [4, 9]: 0
- Plant response rating, Soybean [4, 10]: 0
- Plant response rating, Soybean [4, 11]: 15
- Plant response rating, Soybean [4, 17]: 0
- Plant response rating, Soybean [4, 12]: 10
- Plant response rating, Soybean [4, 13]: 10
- Plant response rating, Soybean [4, 14]: 0
- Plant response rating, Soybean [4, 16]: 20
- Bromegrass, Downy plant response rating [5, 18]: 15
- Plant response rating, Bromegrass, Downy [5, 19]: 25
- Plant response rating, Bromegrass, Downy [5, 20]: 35
- Plant response rating (scale of 0 to 100), Bromegrass, Downy ([5]; Preemergence): 0
- Plant response rating, Bromegrass, Downy [5, 21]: 5
- Plant response rating, Bromegrass, Downy [5, 22]: 25
- Plant response rating, Bromegrass, Downy [5, 23]: 30
- Plant response rating, Bromegrass, Downy [5, 24]: 20
- Ryegrass, Italian plant response rating [6, 18]: 25
- Plant response rating, Ryegrass, Italian [6, 19]: 75
- Plant response rating, Ryegrass, Italian [6, 20]: 85
- Plant response rating (scale of 0 to 100), Ryegrass, Italian ([6]; Preemergence): 55
- Plant response rating, Ryegrass, Italian [6, 21]: 75
- Plant response rating, Ryegrass, Italian [6, 22]: 80
- Plant response rating, Ryegrass, Italian [6, 23]: 95
- Plant response rating, Ryegrass, Italian [6, 24]: 50
- Bluegrass plant response rating [7, 18]: 5
- Plant response rating, Bluegrass [7, 19]: 15
- Plant response rating, Bluegrass [7, 20]: 15
- Plant response rating (scale of 0 to 100), Bluegrass ([7]; Preemergence): 0
- Plant response rating, Bluegrass [7, 21]: 20
- Plant response rating, Bluegrass [7, 22]: 25
- Plant response rating, Bluegrass [7, 23]: 65
- Plant response rating, Bluegrass [7, 24]: 15
- Speedwell plant response rating [8, 25]: 100
- Plant response rating, Speedwell [8, 19]: 25
- Plant response rating, Speedwell [8, 20]: 100
- Plant response rating (scale of 0 to 100), Speedwell ([8]; Preemergence, 31 g ai/ha): 25
- Plant response rating, Speedwell [8, 21]: 90
- Plant response rating, Speedwell [8, 22]: 100
- Plant response rating, Speedwell [8, 23]: 100
- Plant response rating, Speedwell [8, 24]: 15

SMILES: Cc1ccc2sc(Br)c(-c3c(O)c(C)nn(C)c3=O)c2c1 [Compound 79]
- Plant response rating, Corn [1, 9]: 0
- Plant response rating, Corn [1, 10]: 0
- Plant response rating, Corn [1, 11]: 0
- Plant response rating, Corn [1, 17]: 0
- Plant response rating, Corn [1, 12]: 0
- Plant response rating, Corn [1, 13]: 0
- Plant response rating, Corn [1, 14]: 0
- Plant response rating, Corn [1, 16]: 20
- Plant response rating, Crabgrass, Brazil [2, 9]: 20
- Plant response rating, Crabgrass, Brazil [2, 10]: 30
- Plant response rating, Crabgrass, Brazil [2, 11]: 25
- Plant response rating, Crabgrass, Brazil [2, 17]: 80
- Plant response rating, Crabgrass, Brazil [2, 12]: 40
- Plant response rating, Crabgrass, Brazil [2, 13]: 20
- Plant response rating, Crabgrass, Brazil [2, 16]: 100
- Plant response rating, Waterhemp [3, 9]: 60
- Plant response rating, Waterhemp [3, 10]: 100
- Plant response rating, Waterhemp [3, 11]: 70
- Plant response rating, Waterhemp [3, 17]: 100
- Plant response rating, Waterhemp [3, 12]: 80
- Plant response rating, Waterhemp [3, 13]: 50
- Plant response rating, Waterhemp [3, 14]: 75
- Plant response rating, Waterhemp [3, 16]: 100
- Plant response rating, Soybean [4, 9]: 10
- Plant response rating, Soybean [4, 10]: 50
- Plant response rating, Soybean [4, 11]: 15
- Plant response rating, Soybean [4, 17]: 40
- Plant response rating, Soybean [4, 12]: 10
- Plant response rating, Soybean [4, 13]: 0
- Plant response rating, Soybean [4, 14]: 40
- Plant response rating, Soybean [4, 16]: 50
- Bromegrass, Downy plant response rating [5, 18]: 5
- Plant response rating, Bromegrass, Downy [5, 19]: 10
- Plant response rating, Bromegrass, Downy [5, 20]: 20
- Plant response rating (scale of 0 to 100), Bromegrass, Downy ([5]; Preemergence): 35
- Plant response rating, Bromegrass, Downy [5, 21]: 35
- Plant response rating, Bromegrass, Downy [5, 22]: 50
- Plant response rating, Bromegrass, Downy [5, 23]: 60
- Plant response rating, Bromegrass, Downy [5, 24]: 5
- Ryegrass, Italian plant response rating [6, 18]: 70
- Plant response rating, Ryegrass, Italian [6, 19]: 85
- Plant response rating, Ryegrass, Italian [6, 20]: 90
- Plant response rating (scale of 0 to 100), Ryegrass, Italian ([6]; Preemergence): 80
- Plant response rating, Ryegrass, Italian [6, 21]: 85
- Plant response rating, Ryegrass, Italian [6, 22]: 90
- Plant response rating, Ryegrass, Italian [6, 23]: 100
- Plant response rating, Ryegrass, Italian [6, 24]: 75
- Bluegrass plant response rating [7, 18]: 5
- Plant response rating, Bluegrass [7, 19]: 10
- Plant response rating, Bluegrass [7, 20]: 15
- Plant response rating (scale of 0 to 100), Bluegrass ([7]; Preemergence): 10
- Plant response rating, Bluegrass [7, 21]: 10
- Plant response rating, Bluegrass [7, 22]: 25
- Plant response rating, Bluegrass [7, 23]: 35
- Plant response rating, Bluegrass [7, 24]: 10
- Speedwell plant response rating [8, 25]: 25
- Plant response rating, Speedwell [8, 19]: 35
- Plant response rating, Speedwell [8, 20]: 65
- Plant response rating, Speedwell [8, 24]: 30
